Measurements published in US20050197383A1, “Quaternary ammonium compounds and their use as anti-tussive agents” (UCB Farchim S.A., priority 1999, published 2005).

Test system: citric acid-induced cough responses
Assay: citric acid-induced cough in conscious guinea-pigs (aerosol pre-treatment)
Assay type: in vivo, guinea-pig
Conditions: aerosol 10.0 mg/ml pre-treatment immediately before citric acid (1M) exposure; 15 minute observation period
Excerpt: The following method is one of the general methods available to determine the antitussive activity of the compounds of the present invention.
Male albino Dunkin-Hartley strain guinea-pigs (weight 300-400 g) can be obtained from various commercial suppliers.
The method is a modification of that described by Adcock J. J., Schneider C. and Smith T. W., “Effects of Morphine and a Novel Opioid Pentapeptide BW443C, on Cough, Nociception and Ventilation in the Unanaesthetized Guinea-pig”, Br. J. Pharmacol., 93, 93-100 (1988). […]
Cylinder air is introduced into the exposure chamber at a flow rate of 1 liter/min, maintained by a needle valve and monitored by a rotameter. […]
Cough responses are induced by exposure to an aerosol of citric acid (1M) for 10 minutes. Animals are continuously monitored by trained observer, and the number of coughs are counted during a 15 minute period from commencement of the citric acid aerosol administration. […]
The three types of response are differentiated primarily by sound and visual observation. […] Each cough is marked on the Grass polygraph paper trace, and from these record numbers, frequency and time of onset of coughs are determined. […]
Quantities of drugs are weighed out and dissolved in a vehicle. […] The sequence of pre-treatment administration is determined according to a 4×4 Latin Square design. […]

CC(C)[N+](C)(C)CC(O)COc1cccc2ccccc12.[I-] (stereo not shown) [N,N-dimethyl-propranolol iodide, 2-Hydroxy-N-isopropyl-N,N-dimethyl-3-(1-naphthyloxy)propan-1-aminium iodide]
inhibition of cough responses compared with vehicle (saline) pre-treated guinea pigs: 50-70%
